# Test results published in patent US10968462B2, “Plants having increased tolerance to herbicides” (BASF AGRO B.V., priority 2013, dated 2021).
# Key:
# Assay type in all cases: biochemical, Amaranthus tuberculatum
# [1] = target: wild type and amino acid substituted PPO enzyme (PPO2) of SEQ ID NO: 2 (AMARE) (Amaranthus tuberculatus, UniProt Q0NZW9, F204I/T208S, form not given)
# [2] = target: wild type and amino acid substituted PPO enzyme (PPO2) of SEQ ID NO: 2 (AMARE)
# [3] = target: wild type and amino acid substituted PPO enzyme (PPO2) of SEQ ID NO: 2 (AMARE) (Amaranthus tuberculatus, UniProt Q0NZW9, F204I/F457M, form not given)
# [4] = target: wild type and amino acid substituted PPO enzyme (PPO2) of SEQ ID NO: 2 (AMARE) (Amaranthus tuberculatus, UniProt Q0NZW9, R128A/L397D, form not given)
# [5] = target: wild type and amino acid substituted PPO enzyme (PPO2) of SEQ ID NO: 2 (AMARE) (Amaranthus tuberculatus, UniProt Q0NZW9, R128L, form not given)
structure (smiles),measurement,setting,value
"C#CCN1C(=O)C(F)(F)Oc2cc(F)c(-n3c(=O)n(C)c(=S)n(C)c3=O)cc21 [1,5-dimethyl-6-thioxo-3-(2,2,7-trifluoro-3-oxo-4-(prop-2-yny] [reference compound]",IC50,[1],0.129 nM
same,IC50,[2],246 nM
same,IC50,[3],0.0752 nM
same,IC50,[4],5.9 nM
"CC(C)N(C)S(=O)(=O)NC(=O)c1cc(-n2c(=O)cc(C(F)(F)F)n(C)c2=O)c(F)cc1Cl [Saflufenacil, saflufenacil]",IC50,[1],0.0589 nM
same,IC50,[5],222 nM
same,IC50,[3],0.0189 nM
